Data as given in PubChem BioAssay AID330 (DTP/NCI, 2004).
Values joined by “and” are separate entries in the source; they are usually repeats but may differ in a detail not shown here. Equal values may be shown once. Toxic doses and inconclusive results are not listed. Rule for the calls: active = survival T/C of 150% or more; inactive = T/C below 125% in these data.

System: P388 leukemia ip, CD2F1 mice, survival T/C
Assay: NCI In Vivo Anticancer Drug Screen. Data for tumor model P388 Leukemia (intraperitoneal) in CD2F1 (CDF1) mice
Conditions: endpoint: median survival time, higher = longer survival
Procedure, shortened: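 Mice carrying the transplanted tumor received test compound or vehicle. Survival was recorded in each group, and the value is the treated-group measurement divided by that of the vehicle-treated control group.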

[1] = dose: 50.0 mg/kg/injection, schedule: Q01DX005 (ip), vehicle: Klucel (hydroxypropylcellulose) (HPC)
[2] = dose: 100.0 mg/kg/injection, schedule: Q01DX005 (ip), vehicle: Klucel (hydroxypropylcellulose) (HPC)
[3] = dose: 60.0 mg/kg/injection, schedule: Q01DX005 (ip), vehicle: Klucel (hydroxypropylcellulose) (HPC)
[4] = dose: 120.0 mg/kg/injection, schedule: Q01DX005 (ip), vehicle: Klucel (hydroxypropylcellulose) (HPC)
[5] = dose: 240.0 mg/kg/injection, schedule: Q01DX005 (ip), vehicle: Klucel (hydroxypropylcellulose) (HPC)
[6] = dose: 50.0 mg/kg/injection, schedule: Q01DX009 (ip), vehicle: saline
[7] = dose: 100.0 mg/kg/injection, schedule: Q01DX009 (ip), vehicle: saline
[8] = dose: 200.0 mg/kg/injection, schedule: Q01DX009 (ip), vehicle: saline
[9] = dose: 100.0 mg/kg/injection, schedule: Q04DX002 (ip), vehicle: saline with Tween-80
[10] = dose: 200.0 mg/kg/injection, schedule: Q04DX002 (ip), vehicle: saline with Tween-80
[11] = dose: 50.0 mg/kg/injection, schedule: Q01DX009 (ip), vehicle: Klucel (hydroxypropylcellulose) (HPC)
[12] = dose: 50.0 mg/kg/injection, schedule: Q01DX001 (ip), vehicle: Klucel (hydroxypropylcellulose) (HPC)
[13] = dose: 100.0 mg/kg/injection, schedule: Q01DX001 (ip), vehicle: Klucel (hydroxypropylcellulose) (HPC)
[14] = dose: 200.0 mg/kg/injection, schedule: Q01DX001 (ip), vehicle: Klucel (hydroxypropylcellulose) (HPC)
[15] = dose: 400.0 mg/kg/injection, schedule: Q01DX001 (ip), vehicle: Klucel (hydroxypropylcellulose) (HPC)

Measured: T/C

COC1=CC(=O)C2=C(OCO2)C1=O
inactive: dose: 6.25 mg/kg/injection, schedule: Q04DX002 (ip), vehicle: saline with Tween-80 104 % of control | dose: 12.5 mg/kg/injection, schedule: Q04DX002 (ip), vehicle: saline with Tween-80 109 % of control | dose: 25.0 mg/kg/injection, schedule: Q04DX002 (ip), vehicle: saline with Tween-80 103 % of control

COC(=O)C1=C(C(=O)OC)P2(C)(C)SC(=S)N2C1(c1ccccc1)c1ccccc1
inactive: [1] 102 % of control | [2] 91 % of control

O=C1CSC(C2CCCCC2)N1c1nncs1 (centres undefined)
inactive: dose: 30.0 mg/kg/injection, schedule: Q01DX005 (ip), vehicle: Klucel (hydroxypropylcellulose) (HPC) 100 % of control | [3] 100 % of control | [4] 101 % of control | [5] 107 % of control

Clc1ccc(C2=NNC(c3ccc(Cl)cc3)=NN2)cc1
inactive: [3] 103 % of control | [4] 102 % of control | [5] 98 % of control

CCCC(=O)C(CC)C(=O)CCC(=O)Nc1cccc([N+](=O)[O-])c1 (centres undefined)
inactive: dose: 60.0 mg/kg/injection, schedule: Q01DX005 (ip), vehicle: saline with Tween-80 101 % of control | dose: 120.0 mg/kg/injection, schedule: Q01DX005 (ip), vehicle: saline with Tween-80 104 % of control | dose: 240.0 mg/kg/injection, schedule: Q01DX005 (ip), vehicle: saline with Tween-80 109 % of control

CSC(=S)N/N=C(C)\C=N/Nc1ccccc1
inactive: dose: 100.0 mg/kg/injection, schedule: Q04DX002 (ip), vehicle: saline 101 % of control | dose: 200.0 mg/kg/injection, schedule: Q04DX002 (ip), vehicle: saline 106 % of control | dose: 400.0 mg/kg/injection, schedule: Q04DX002 (ip), vehicle: saline 96 % of control

CSCCC(O)C(NC(=O)CCl)C(=O)O (centres undefined)
inactive: [6] 89 % of control and 96 % of control | [7] 98 % of control and 102 % of control | [8] 93 % of control and 95 % of control

CC(/C=N\Nc1ccc(C(=O)O)cc1)=N/NC(=O)CC#N
inactive: [6] 88 % of control | [7] 86 % of control | [8] 88 % of control

O=C1C(Br)=C(Nc2ccccc2)C(=O)C(Br)=C1Nc1ccccc1
inactive: [1] 98 % of control | [2] 93 % of control

CCCNC(=O)NS(=O)(=O)c1ccc(Cl)cc1
inactive: dose: 50.0 mg/kg/injection, schedule: Q04DX003 (ip), vehicle: saline with Tween-80 102 % of control | dose: 100.0 mg/kg/injection, schedule: Q04DX003 (ip), vehicle: saline with Tween-80 109 % of control | dose: 200.0 mg/kg/injection, schedule: Q04DX003 (ip), vehicle: saline with Tween-80 100 % of control

Nc1ccc(-c2nc(N)c3[nH]cnc3n2)cc1
inactive: dose: 12.5 mg/kg/injection, schedule: Q01DX005 (ip), vehicle: suspension in saline 97 % of control | dose: 25.0 mg/kg/injection, schedule: Q01DX005 (ip), vehicle: suspension in saline 102 % of control | dose: 50.0 mg/kg/injection, schedule: Q01DX005 (ip), vehicle: suspension in saline 100 % of control | dose: 100.0 mg/kg/injection, schedule: Q01DX005 (ip), vehicle: suspension in saline 99 % of control

[Cu+2].[O-]/C(=N\N=C\c1ccccn1)c1ccc(Cl)cc1.[O-]/C(=N\N=C\c1ccccn1)c1ccc(Cl)cc1
inactive: dose: 50.0 mg/kg/injection, schedule: Q04DX002 (ip), vehicle: saline with Tween-80 90 % of control | [9] 93 % of control | [10] 90 % of control

OC(c1ccncc1)(c1ccc(Cl)cc1)c1cccs1 (centres undefined)
inactive: [11] 101 % of control | dose: 100.0 mg/kg/injection, schedule: Q01DX009 (ip), vehicle: Klucel (hydroxypropylcellulose) (HPC) 98 % of control | dose: 200.0 mg/kg/injection, schedule: Q01DX009 (ip), vehicle: Klucel (hydroxypropylcellulose) (HPC) 93 % of control

C/C(=N\O)c1ccccc1N=Nc1ccc(N(CCCl)CCCl)cc1C
inactive: [12] 100 % of control | [13] 98 % of control | [14] 104 % of control

O=S(=O)(c1ccccc1)C1CC=C(c2ccccc2)CNC1 (centres undefined)
inactive: [12] 99 % of control | [13] 98 % of control | [14] 98 % of control | [15] 100 % of control

CC(C)(C)c1ccc(S(=O)[O][Sn]([CH3])([CH3])[O]S(=O)c2ccc(C(C)(C)C)cc2)cc1 (centres undefined)
inactive: [12] 110 % of control | [14] 114 % of control

O=C1C(Cl)=C(Nc2ccccc2)C(O)N1c1ccccc1 (centres undefined)
inactive: dose: 50.0 mg/kg/injection, schedule: Q01DX005 (ip), vehicle: saline with Tween-80 103 % of control | dose: 100.0 mg/kg/injection, schedule: Q01DX005 (ip), vehicle: saline with Tween-80 96 % of control | dose: 200.0 mg/kg/injection, schedule: Q01DX005 (ip), vehicle: saline with Tween-80 92 % of control

COc1ccc(C(=O)C(C)(c2nc3n(c2O)C(=N)N=N3)c2nc3n(c2O)C(=N)N=N3)cc1 (centres undefined)
inactive: dose: 60.0 mg/kg/injection, schedule: Q01DX005 (ip), vehicle: saline 100 % of control | dose: 120.0 mg/kg/injection, schedule: Q01DX005 (ip), vehicle: saline 102 % of control | dose: 240.0 mg/kg/injection, schedule: Q01DX005 (ip), vehicle: saline 106 % of control

CCc1[nH]c2ccc(C)cc2c1C(=O)c1cccnc1
inactive: dose: 50.0 mg/kg/injection, schedule: Q04DX003 (ip), vehicle: Klucel (hydroxypropylcellulose) (HPC) 94 % of control | dose: 100.0 mg/kg/injection, schedule: Q04DX003 (ip), vehicle: Klucel (hydroxypropylcellulose) (HPC) 103 % of control | dose: 200.0 mg/kg/injection, schedule: Q04DX003 (ip), vehicle: Klucel (hydroxypropylcellulose) (HPC) 98 % of control

COC(=O)c1ccccc1N=C/C(Cl)=C(/Cl)C(=O)O
inactive: dose: 6.25 mg/kg/injection, schedule: Q01DX009 (ip), vehicle: Klucel (hydroxypropylcellulose) (HPC) 100 % of control and 110 % of control and 96 % of control | dose: 12.5 mg/kg/injection, schedule: Q01DX009 (ip), vehicle: Klucel (hydroxypropylcellulose) (HPC) 100 % of control and 111 % of control and 117 % of control | dose: 25.0 mg/kg/injection, schedule: Q01DX009 (ip), vehicle: Klucel (hydroxypropylcellulose) (HPC) 113 % of control and 118 % of control and 121 % of control | [11] 113 % of control and 116 % of control and 119 % of control

C[n+]1cccc2c1C(=O)C(=O)c1c-2ccc[n+]1C
inactive: [9] 120 % of control | [10] 105 % of control

O=C(O)CCC(=O)Nc1ccccc1C(=O)O
inactive: dose: 100.0 mg/kg/injection, schedule: Q01DX009 (ip), vehicle: saline with Tween-80 110 % of control | dose: 200.0 mg/kg/injection, schedule: Q01DX009 (ip), vehicle: saline with Tween-80 100 % of control | dose: 400.0 mg/kg/injection, schedule: Q01DX009 (ip), vehicle: saline with Tween-80 110 % of control

C=C(C)OP(=O)(OCC)OCC
inactive: [13] 100 % of control | [14] 111 % of control | [15] 102 % of control
